# Reference: patent US20250115558A1, “PYRIDAZINE DERIVATIVES AND RELATED USES” (NodThera Limited, priority 2023, published 2025)
# Structures can show the parent of a compound that is named as a salt.
# Columns and labels:
# THP-1 = THP-1 IC50 assay; format: cell-based; conditions: Homo sapiens; THP-1 cells
# [1] = tested on: IL-1β release upon NLRP3 activation in peripheral blood mononuclear cells (PBMC); assay: PBMC IC50 Determination Assay; format: cell-based; conditions: Homo sapiens; inhibition of IL-1β release; LPS-primed PBMC stimulated with ATP or nigericin
# Method: The compounds of the present disclosure were tested for their inhibitory activity against IL-1β release upon NLRP3 activation in peripheral blood mononuclear cells (PBMC).
# Protocol A. PBMC were isolated from buffy coats by density gradient centrifugation on Histopaque-1077 (Sigma, cat no. 10771). Isolated cells were seeded into the wells of a 96-well plate and incubated for 3 h with lipopolysaccharide (LPS). Following medium exchange, the compounds of the present disclosure were added (a single compound per well) and the cells were incubated for 30 min. Next, the cells were stimulated either with ATP (5 mM) or nigericin (10 μM) for 1 h and the cell culture media from the wells were collected for further analysis.
# The release of IL-1β into the media was determined by a quantitative detection of IL-1β in the media using an IL-1β enzyme-linked immunosorbent assay (ELISA) Ready-SET-Go!, eBioscience cat. No. 88-7261-88. Briefly, in a first step, high affinity binding plates (Corning, Costar 9018 or NUNC Maxisorp Cat No. 44-2404) were coated overnight at 4° C. with specific capture antibody included in the kit (anti-human IL-1β ref. 14-7018-68). Subsequently, plates were blocked with blocking buffer for 1 h at room temperature (rt) and after washing with a buffer (PBS with 0.05% Tween-20) incubated with protein standard and culture media. After 2 h of incubation at rt, plates were washed and incubated with biotinylated detection antibody included in the kit (anti-human IL-1β Biotin ref. 33-7110-68) for 1 h at rt. Plates were washed and incubated with HRP-streptavidin for 30 min at rt and washed again. The signal was developed after addition of 3,3′,5,5′-tetramethylbenzidine-peroxidase (TMB) until colour appeared and the reaction was stopped by 2 M H2SO4. A microplate spectrophotometer (BioTek) was used to detect signals with 450 nm. The detection range of IL-1β ELISA was […].
# Protocol B. PBMC were isolated from buffy coats by density gradient centrifugation on Histopaque-1077 (Sigma, cat no. 10771). Isolated cells were seeded into the wells (280,000 cells/well) of a 96-well plate and incubated for 3 h with lipopolysaccharide (LPS, 1 μg/mL diluted 1000× from a 1 mg/mL stock solution). The compounds of the present disclosure were added (a single compound per well) and the cells were incubated for 30 min. Next, the cells were stimulated with ATP (5 mM final concentration diluted 20× from a 100 mM stock solution) for 1 h and the cell culture media from the wells were collected for further analysis.
# The release of IL-1β into the media was determined by quantitative detection of IL-1β in the media using HTRF®, CisBio cat. No. 62HIL1BPEH. Briefly, cell culture supernatant were dispensed directly into the assay plate containing antibodies labelled with the HTRF® donor and acceptor. A microplate spectrophotometer (BMG) was used to detect signals at 655 nm and 620 nm. The detection range of IL-1β HTRF® was 39-6500 μg/mL.
IC50 (THP-1) [µM],SMILES,IC50 [1] [µM]
1 to 3,"CC(=O)N1CC[C@@H](NCc2ccc(-c3c(C)cc(Cl)cc3O)nn2)C1 [Compound 72, (R)-1-(3-(((6-(4-Chloro-2-hydroxy-6-methylphenyl)pyridazin-3-yl)methyl)amino)pyrrolidin-1-yl)ethan-1-one]",0.5 to 1
1 to 3,"Cc1cc(CNC2CCOCC2)nnc1-c1ccc(C(F)(F)F)cc1O [Compound 11, 2-(4-Methyl-6-(((tetrahydro-2H-pyran-4-yl)amino)methyl)pyridazin-3-yl)-5-(trifluoromethyl)phenol]",1 to 3
≥ 10,"Cc1cc(-c2ccc(CNC3CCOCC3)nn2)c(O)cc1C(F)(F)F [Compound 15, 4-Methyl-2-(6-(((tetrahydro-2H-pyran-4-yl)amino)methyl)pyridazin-3-yl)-5-(trifluoromethyl)phenol]",≥ 10
1 to 3,"Oc1cc(Cl)ccc1-c1ccc(CNC2CCOCC2)nn1 [Compound 16, 5-Chloro-2-(6-(((tetrahydro-2H-pyran-4-yl)amino)methyl)pyridazin-3-yl)phenol]",≥ 10
1 to 3,Cc1cn(Cc2ccc(-c3c(C)cc(C(F)(F)F)cc3O)nn2)c(=N)s1 [Compound 125],1 to 3
0.5 to 1,Cc1cc(C(F)(F)F)cc(O)c1-c1ccc(CNC2CCCC2)nn1 [Compound 101],< 0.5
1 to 3,"Cc1cc(C(F)(F)F)cc(O)c1-c1ccc(CNCC2CCCN2C)nn1 (stereo not shown) [Compound 76, 3-Methyl-2-(6-((((1-methylpyrrolidin-2-yl)methyl)amino)methyl)pyridazin-3-yl)-5-(trifluoromethyl)phenol dihydrochloride]",1 to 3
< 0.5,"Cc1cc(C(F)(F)F)cc(O)c1-c1ccc(CN[C@H]2CC(=O)N(C)C2)nn1 [Compound 49, (S)-4-(((6-(2-Hydroxy-6-methyl-4-(trifluoromethyl)phenyl)pyridazin-3-yl)methyl)amino)-1-methylpyrrolidin-2-one]",< 0.5
0.5 to 1,"Cc1cc(NCc2ccc(-c3c(C)cc(C(F)(F)F)cc3O)nn2)sn1 [Compound 84, 3-Methyl-2-(6-{[(3-methyl-1,2-thiazol-5-yl)amino]methyl}pyridazin-3-yl)-5-(trifluoromethyl)phenol]",0.5 to 1
0.5 to 1,"Cc1cc(Cl)cc(O)c1-c1ccc(CN(C)[C@H]2CCOC2)nn1 [Compound 59, (S)-5-Chloro-3-methyl-2-(6-((methyl(tetrahydrofuran-3-yl)amino)methyl)pyridazin-3-yl)phenol]",1 to 3
0.5 to 1,"Cc1cc(C(F)(F)F)cc(O)c1-c1ccc(CNC2CC3(C2)CS(=O)(=O)C3)nn1 [Compound 3, 6-(((6-(2-Hydroxy-6-methyl-4-(trifluoromethyl)phenyl)pyridazin-3-yl)methyl)amino)-2-thiaspiro[3.3]heptane 2,2-dioxide]",0.5 to 1
≥ 10,"Cc1cc(C(F)(F)F)cc(O)c1-c1ccc(CNc2ccccn2)nn1 [Compound 78, 3-Methyl-2-(6-{[(pyridin-2-yl)amino]methyl}pyridazin-3-yl)-5-(trifluoromethyl)phenol]",≥ 10
1 to 3,Cc1cc(C(F)(F)F)cc(O)c1-c1ccc(CNCc2ccn(C)n2)nn1 [Compound 127],0.5 to 1
< 0.5,"Cc1cc(Cl)cc(O)c1-c1ccc(CN[C@@H]2CCOC2)nn1 [Compound 53, (R)-5-Chloro-3-methyl-2-(6-(((tetrahydrofuran-3-yl)amino)methyl)pyridazin-3-yl)phenol]",< 0.5
3 to 10,Cc1cc(C(F)(F)F)cc(O)c1-c1ccc(CN2C(=N)N(C)CC2=O)nn1 [Compound 23],3 to 10
1 to 3,"Cc1cc(CNC2CCOCC2)nnc1-c1c(C)cc(C(F)(F)F)cc1O [Compound 10, 3-Methyl-2-(4-methyl-6-(((tetrahydro-2H-pyran-4-yl)amino)methyl)pyridazin-3-yl)-5-(trifluoromethyl)phenol]",1 to 3
1 to 3,Cc1cc(C(F)(F)F)cc(O)c1-c1ccc(CNC2CCOC(C)C2)nn1 (stereo not shown) [Compound 139],0.5 to 1
1 to 3,"Cc1cc(C(F)(F)F)cc(O)c1-c1ccc(CN2CC(C)CC2=O)nn1 (stereo not shown) [Compound 46, 1-((6-(2-Hydroxy-6-methyl-4-(trifluoromethyl)phenyl)pyridazin-3-yl)methyl)-4-methylpyrrolidin-2-one]",1 to 3

IC50 (THP-1) [µM],SMILES,IC50 [1] [µM]
0.5 to 1,"Cc1cc(C(F)(F)F)cc(O)c1-c1ccc(CNc2cccnc2)nn1 [Compound 79, 3-Methyl-2-(6-{[(pyridin-3-yl)amino]methyl}pyridazin-3-yl)-5-(trifluoromethyl)phenol]",0.5 to 1
0.5 to 1,"Cc1cc(C(F)(F)F)cc(O)c1-c1ccc(CNC2CC3(COC3)C2)nn1 [Compound 2, 2-(6-(((2-Oxaspiro[3.3]heptan-6-yl)amino)methyl)pyridazin-3-yl)-3-methyl-5-(trifluoromethyl)phenol]",0.5 to 1
0.5 to 1,Cc1cc(C(F)(F)F)cc(O)c1-c1ccc(Cn2ccccc2=N)nn1 [Compound 119],0.5 to 1
< 0.5,Cc1cc(C(F)(F)F)cc(O)c1-c1ccc(CNc2cnsc2)nn1 [Compound 150],< 0.5
1 to 3,Cc1cc(C(F)(F)F)cc(O)c1-c1ccc(CNC2CCN(C)C2=O)nn1 (stereo not shown) [Compound 113],0.5 to 1
0.5 to 1,Cc1cc(C(F)(F)F)cc(O)c1-c1ccc(CNc2cscn2)nn1 [Compound 28],0.5 to 1
< 0.5,Cc1cc(C(F)(F)F)cc(O)c1-c1ccc(CNC2CCC(=O)N(C)C2)nn1 (stereo not shown) [Compound 111],< 0.5
1 to 3,"Cc1cc(C(F)(F)F)cc(O)c1-c1ccc(C(C)N2CCCC2=O)nn1 (stereo not shown) [Compound 80, 1-(1-{6-[2-Hydroxy-6-methyl-4-(trifluoromethyl)phenyl]pyridazin-3-yl}ethyl)pyrrolidin-2-one]",< 0.5
1 to 3,Cc1cc(C(F)(F)F)cc(O)c1-c1ccc(CNC2CCCN(C)C2)nn1 (stereo not shown) [Compound 22],1 to 3
1 to 3,"Cc1cc(OC(F)F)cc(O)c1-c1ccc(CNC2CCOCC2)nn1 [Compound 70, 5-(Difluoromethoxy)-3-methyl-2-(6-(((tetrahydro-2H-pyran-4-yl)amino)methyl)pyridazin-3-yl)phenol]",1 to 3
0.5 to 1,Cc1cc(C(F)(F)F)cc(O)c1-c1ccc(CNc2cnccn2)nn1 [Compound 146],0.5 to 1
0.5 to 1,"Cc1cc(Cl)cc(O)c1-c1ccc(CO[C@@H]2CCOC2)nn1 [Compound 63, (R)-5-Chloro-3-methyl-2-(6-(((tetrahydrofuran-3-yl)oxy)methyl)pyridazin-3-yl)phenol]",< 0.5
1 to 3,"CO[C@@H]1CCN(Cc2ccc(-c3c(C)cc(C(F)(F)F)cc3O)nn2)C1 [Compound 39, (R)-2-(6-((3-Methoxypyrrolidin-1-yl)methyl)pyridazin-3-yl)-3-methyl-5-(trifluoromethyl)phenol]",0.5 to 1
1 to 3,"Cc1cc(C(F)(F)F)cc(O)c1-c1ccc(CNc2nccn2C)nn1 [Compound 82, 3-Methyl-2-(6-{[(1-methyl-1H-imidazol-2-yl)amino]methyl}pyridazin-3-yl)-5-(trifluoromethyl)phenol hydrochloride]",0.5 to 1
1 to 3,Cc1cc(NCc2ccc(-c3c(C)cc(C(F)(F)F)cc3O)nn2)on1 [Compound 149],1 to 3
1 to 3,"Cc1cc(Cl)cc(O)c1-c1ccc(CN[C@@H]2CCC(=O)N(C)C2)nn1 [Compound 66, (R)-5-(((6-(4-Chloro-2-hydroxy-6-methylphenyl)pyridazin-3-yl)methyl)amino)-1-methylpiperidin-2-one]",0.5 to 1
1 to 3,"CO[C@H]1CCN(Cc2ccc(-c3c(C)cc(Cl)cc3O)nn2)C1 [Compound 61, (S)-5-Chloro-2-(6-((3-methoxypyrrolidin-1-yl)methyl)pyridazin-3-yl)-3-methylphenol]",1 to 3
